Patent US20080255055A1, “Use of Derivatives of Dipeptides for the Manufacture of a Medicament for the Treamtent of Microbial Infections” (NEOBIOTICS AB, priority 2004, published 2008)
Converted amounts (≈) assume the structure as drawn. Non-standard residues stand in square brackets, D forms with d. dPhg = N[C@@H](C(=O)O)c1ccccc1; Phg = N[C@H](C(=O)O)c1ccccc1; code Z = not defined here; Orn = NCCC[C@H](N)C(=O)O; Mpa = O=C(O)CCS

Assays:
[1] = system: cysteine proteases; test: Protease inhibitory activity; assay type: biochemical
[2] = system: HSV-1 F; test: Virus inhibition analysis and plaque counting test in GMK AH 1 cells; assay type: cell-based, Herpes Simplex Virus; settings: 10 PFU/cell, 48 hours, Cp1 0.4 mM in 1% DMSO, Acyclovir 1.0 mM
[3] = system: E. coli and other Gram-negatives; test: Agar well diffusion; settings: for antibacterial effect, E. coli and other Gram-negatives: agar well diffusion, 40 ul of 1 mg/ml in DMSO
[4] = system: Aspergillus niger ATCC 16404; test: Antifungal MIC in Sabouraud broth; assay type: cell-based; settings: 25° C., 7 days
Experimental: (§1) The minimal inhibitory concentration (MIC) was determined using a method with Sabouraud broth (Becton Dickinson) and an initial inoculum 10^3-10^4 cfu/ml. Polypropylene 96-well plates (Nunc) were incubated at 25° C. for 48 h (for Candida albicans ATCC 10231) or 7 days (for Aspergillus niger ATCC 16404). The MIC was taken as the lowest drug concentration at which noticeable growth was inhibited. The experiments were performed in duplicate.

[5] = system: Candida albicans ATCC 10231; test: Antifungal MIC in Sabouraud broth; assay type: cell-based; settings: 25° C., 48 h
Experimental: as §1

[6] = system: α-haemolytic Streptococci; test: Agar well diffusion; settings: 40 ul of 1 mg/ml in DMSO
[7] = system: Streptococcus: group C; test: Agar well diffusion; settings: 40 ul of 1 mg/ml in DMSO
[8] = system: GAS; test: MIC by broth dilution; assay type: cell-based, group A Streptococci; settings: growth media without DMSO, solubility problems; true MIC might be lower
Experimental: (§2) The in vitro antibacterial activity of drugs is commonly estimated by testing their minimal inhibitory (MIC) and bactericidal (MBC) concentrations.
(§3) MIC/MBC determinations were performed by broth dilution according to established procedures, well known for a person skilled in the art.

[9] = system: labial herpes; test: Topical application to beginning labial herpes outbreak; assay type: in vivo; settings: Cp1 in softening cream, 0.2 ml solution (0.1 g/l) on the lip of a person; performed twice
[10] = system: S. pneumoniae; test: Agar well diffusion; settings: 40 ul of 1 mg/ml in DMSO
[11] = system: Streptococcus: group B; test: Agar well diffusion; settings: 40 ul of 1 mg/ml in DMSO
[12] = system: Streptococcus: group A; test: Agar well diffusion; settings: 40 ul of 1 mg/ml in DMSO
[13] = Solubility; assay type: physicochemical
[14] = system: Staphylococci incl. multi-resistant MRSA; test: Agar well diffusion; settings: for antibacterial effect, Staphylococci incl. multi-resistant MRSA: agar well diffusion, 40 ul of 1 mg/ml in DMSO; for growth inhibition of approximately 100 strain of MRSA: clinical isolates, several with additional antibiotic resistance markers
[15] = system: S. aureus; test: MIC by broth dilution; assay type: cell-based; settings: growth media without DMSO, solubility problems; true MIC might be lower
Experimental: as §2, §3

[16] = system: CNS incl. resistant and multiresistant MRSE; test: Agar well diffusion; settings: 40 ul of 1 mg/ml in DMSO
[17] = system: lethal strept challenge; test: Protection against lethal strept challenge; assay type: in vivo; settings: mouse
[18] = system: poliovirus type 1; assay type: cell-based; settings: GMK AH 1 cells, 1 PFU/cell, 48 hours; Cp1 0.4 mM in 1% DMSO
[19] = system: Streptococcus: group G; test: Agar well diffusion; settings: 40 ul of 1 mg/ml in DMSO
[20] = system: L. monocytogenes; test: Agar well diffusion; settings: 40 ul of 1 mg/ml in DMSO
[21] = system: bacteria; test: Anti-bacterial activity (tables of particularly interesting compounds); assay type: cell-based; design: key: + indicates that the compound show effects

Q: Which protease inhibitory activity [1] does the source give for `CC(C)CC(NC(=O)C(CCCN=C(N)N)NC(=O)OCc1ccccc1)C(=O)N[C@H](CNC(=O)/C=C/c1ccccc1)C(C)C` (stereo in doubt) [Cp1, (2S)-2-[(N^α-Benzyloxycarbonyl-arginyl-leucyl)-amino]-1-trans-cinnamoylamino-3-methylbutane] here?
A: devoid of any detectable protease inhibitory activity

Q: What about the HSV-1 plaques [2] of the same compound?
A: 1.0 × 10^3

Q: And the “activity against gram-negative bacteria” value [3]?
A: low or no activity

Q: What about the “antibacterial effect, E. coli and other Gram-negatives” value [3] of the same compound?
A: −

Q: And the “MIC Aspergillus niger ATCC 16404” value [4]?
A: 64 µg/mL (≈ 101 µM)

Q: What about the “MIC Candida albicans ATCC 10231” value [5] of the same compound?
A: 32 µg/ml

Q: What about the “antibacterial effect, α-haemolytic Streptococci” value [6] of the same compound?
A: −

Q: What about the “antibacterial effect, Streptococcus: group C” value [7] of the same compound?
A: +

Q: And the “MIC for GAS” value [8]?
A: approximately 16 mg/L

Q: What about the “time after which symptoms of beginning labial herpes outbreak was gone” value [9] of the same compound?
A: Cp1 was added to a softening cream and 0.2 ml solution (0.1 g/l) was applied to an area of a beginning labial herpes outbreak on the lip of a person. After 3-4 hours the symptoms was gone. The experiment was performed twice.

Q: What about the “antibacterial effect, S. pneumoniae” value [10] of the same compound?
A: +

Q: What about the “antibacterial effect, Streptococcus: group B” value [11] of the same compound?
A: +

Q: And the “antibacterial effect, Streptococcus: group A” value [12]?
A: +

Q: And the “solubility in DMSO” value ([13]; DMSO)?
A: soluble in DMSO to high concentrations

Q: And the solubility in water ([13]; water)?
A: less soluble in water

Q: And the “antibacterial effect, Staphylococci incl. multi-resistant MRSA” value [14]?
A: +

Q: And the “growth inhibition of approximately 100 strain of MRSA” value [14]?
A: strongly inhibited in their growth

Q: What about the “MIC for S. aureus” value [15] of the same compound?
A: approximately 16 mg/L

Q: What about the “antibacterial effect, CNS incl. resistant and multiresistant MRSE” value [16] of the same compound?
A: +

Q: And the “protective capacity for lethal strept challenge” value [17]?
A: strong protective capacity

Q: What about the Polio plaques [18] of the same compound?
A: 2.6 × 10^5

Q: And the “antibacterial effect, Streptococcus: group G” value [19]?
A: +

Q: What about the “antibacterial effect, L. monocytogenes” value [20] of the same compound?
A: +

Q: What does the source list for `CC(=O)NC(Cc1ccccc1)C(=O)NCC(NC(=O)C(CC(C)C)NC(=O)C(CCCNC(=N)N)NC(=O)OCc1ccccc1)C(C)C` (stereo not shown) [[AcPhe^5]Cp1]?
A: antibacterial effect, E. coli and other Gram-negatives [3]: −; MIC Aspergillus niger ATCC 16404 [4]: 256 µg/mL (≈ 368 µM); MIC Candida albicans ATCC 10231 [5]: 512 µg/mL (≈ 737 µM); antibacterial effect, α-haemolytic Streptococci [6]: −; antibacterial effect, Streptococcus: group C [7]: +; antibacterial effect, S. pneumoniae [10]: +; antibacterial effect, Streptococcus: group B [11]: +; antibacterial effect, Streptococcus: group A [12]: +; antibacterial effect, Staphylococci incl. multi-resistant MRSA [14]: +; growth inhibition of approximately 100 strain of MRSA [14]: strongly inhibited in their growth; antibacterial effect, CNS incl. resistant and multiresistant MRSE [16]: +; antibacterial effect, Streptococcus: group G [19]: +; antibacterial effect, L. monocytogenes [20]: +

Q: For “Mpa-Phe-Arg-Leu-Val-Phe-Cys-NH2 ([Mpa]FRLVFC-NH2; cysteine pairing not given here)”, which “Activity Anti-bacterial” value [21] is on record?
A: +

Q: Which “Activity Anti-bacterial” value [21] does the source give for “Z-Arg-Leu-Val-Phe-NH2 ({code Z}-RLVF-NH2; reading uncertain; also: printed as Z-Arg-Leu-Val-Phe-NH2)” here?
A: +

Q: For Z-Arg-Leu-Val-cinnamoylamide, which “Activity Anti-bacterial” value [21] is on record?
A: +

Q: For cyclo(FRLVF[Orn]LV), which “Activity Anti-bacterial” value [21] is on record?
A: +

Q: For cyclo(F[Orn]LVF[Orn]LV), which “Activity Anti-bacterial” value [21] is on record?
A: +

Q: Which “Activity Anti-bacterial” value [21] does the source give for “cyclo(Phe-Arg-Leu-Val-Phe-Arg-Leu-Val) (FRLVFRLV; cyclic; printed: Phe-Arg-Leu-Val-Phe-Arg-Leu-Val)” here?
A: +

Q: For “cyclo(Tyr-Arg-Leu-Val-Tyr-Arg-Leu-Val) (YRLVYRLV; cyclic; printed: Tyr-Arg-Leu-Val-Tyr-Arg-Leu-Val)”, which “Activity Anti-bacterial” value [21] is on record?
A: +

Q: With cyclo([Phg]RLV[Phg]RLV) as the compound, how does the “Activity Anti-bacterial” value [21] read?
A: +

Q: Which “Activity Anti-bacterial” value [21] does the source give for cyclo([dPhg]RLV[dPhg]RLV) here?
A: +

Q: Which “Activity Anti-bacterial” value [21] does the source give for cyclo([dY]RLV[dY]RLV) here?
A: +
